Assay results published in patent US9616064B2, “Rho kinase inhibitors and methods of use” (H. LEE MOFFITT CANCER CENTER AND RESEARCH INSTITUTE, INC., priority 2011, dated 2017).
Counter-ions that a name gives are not always drawn. Like-named read-outs stand apart in the source and are kept apart here.

Columns and labels:
ROCK2 = ROCK2 (Homo sapiens (Human), UniProt O75116); assay: Z-lyte FRET assay to measure kinase inhibition, ROCK2; format: biochemical
ROCK1 = ROCK1 (Homo sapiens (Human), UniProt Q13464); assay: Z-lyte FRET assay to measure kinase inhibition, ROCK1; format: biochemical; conditions: for inhibition at 50 µM: read-out: ROCK1 % inhibition @ 50 μM, 50 μM compound; for IC50: read-out: ROCK1 IC50
Sequence of ROCK1 (Q13464 whole entry): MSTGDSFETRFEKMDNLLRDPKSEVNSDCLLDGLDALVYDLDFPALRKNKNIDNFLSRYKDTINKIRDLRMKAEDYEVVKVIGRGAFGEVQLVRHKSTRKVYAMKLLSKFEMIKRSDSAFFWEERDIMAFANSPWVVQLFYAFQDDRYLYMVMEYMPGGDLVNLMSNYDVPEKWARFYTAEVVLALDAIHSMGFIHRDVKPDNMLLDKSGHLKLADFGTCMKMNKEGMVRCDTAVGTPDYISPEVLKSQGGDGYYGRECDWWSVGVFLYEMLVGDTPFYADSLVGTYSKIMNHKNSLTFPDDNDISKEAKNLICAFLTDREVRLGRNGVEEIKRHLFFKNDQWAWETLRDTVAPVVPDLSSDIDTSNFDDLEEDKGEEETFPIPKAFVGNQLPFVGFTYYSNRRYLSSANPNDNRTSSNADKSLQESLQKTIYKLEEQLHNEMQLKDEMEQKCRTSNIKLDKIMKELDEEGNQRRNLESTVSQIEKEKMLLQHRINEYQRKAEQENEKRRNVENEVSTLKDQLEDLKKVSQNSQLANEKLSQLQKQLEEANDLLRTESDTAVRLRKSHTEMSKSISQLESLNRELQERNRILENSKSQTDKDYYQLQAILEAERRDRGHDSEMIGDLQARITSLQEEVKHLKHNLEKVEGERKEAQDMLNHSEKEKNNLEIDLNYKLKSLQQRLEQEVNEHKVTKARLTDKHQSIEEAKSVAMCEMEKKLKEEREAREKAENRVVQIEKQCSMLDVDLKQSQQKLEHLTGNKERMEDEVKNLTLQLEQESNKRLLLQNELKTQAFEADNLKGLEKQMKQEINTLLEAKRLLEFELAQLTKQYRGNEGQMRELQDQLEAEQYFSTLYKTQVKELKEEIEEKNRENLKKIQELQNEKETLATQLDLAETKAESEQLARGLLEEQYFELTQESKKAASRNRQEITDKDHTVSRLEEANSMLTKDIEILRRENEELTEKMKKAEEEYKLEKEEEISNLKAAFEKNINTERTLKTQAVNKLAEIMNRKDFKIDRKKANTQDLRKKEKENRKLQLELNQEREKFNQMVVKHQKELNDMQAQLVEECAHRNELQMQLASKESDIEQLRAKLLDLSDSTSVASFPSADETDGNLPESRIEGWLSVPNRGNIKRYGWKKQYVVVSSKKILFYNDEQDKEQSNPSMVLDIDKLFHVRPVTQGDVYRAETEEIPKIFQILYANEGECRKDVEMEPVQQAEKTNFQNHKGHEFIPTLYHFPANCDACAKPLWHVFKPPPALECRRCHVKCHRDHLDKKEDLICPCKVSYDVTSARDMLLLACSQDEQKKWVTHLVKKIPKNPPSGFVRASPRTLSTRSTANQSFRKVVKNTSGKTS

Sequence of ROCK2 (O75116 whole entry, species assumed): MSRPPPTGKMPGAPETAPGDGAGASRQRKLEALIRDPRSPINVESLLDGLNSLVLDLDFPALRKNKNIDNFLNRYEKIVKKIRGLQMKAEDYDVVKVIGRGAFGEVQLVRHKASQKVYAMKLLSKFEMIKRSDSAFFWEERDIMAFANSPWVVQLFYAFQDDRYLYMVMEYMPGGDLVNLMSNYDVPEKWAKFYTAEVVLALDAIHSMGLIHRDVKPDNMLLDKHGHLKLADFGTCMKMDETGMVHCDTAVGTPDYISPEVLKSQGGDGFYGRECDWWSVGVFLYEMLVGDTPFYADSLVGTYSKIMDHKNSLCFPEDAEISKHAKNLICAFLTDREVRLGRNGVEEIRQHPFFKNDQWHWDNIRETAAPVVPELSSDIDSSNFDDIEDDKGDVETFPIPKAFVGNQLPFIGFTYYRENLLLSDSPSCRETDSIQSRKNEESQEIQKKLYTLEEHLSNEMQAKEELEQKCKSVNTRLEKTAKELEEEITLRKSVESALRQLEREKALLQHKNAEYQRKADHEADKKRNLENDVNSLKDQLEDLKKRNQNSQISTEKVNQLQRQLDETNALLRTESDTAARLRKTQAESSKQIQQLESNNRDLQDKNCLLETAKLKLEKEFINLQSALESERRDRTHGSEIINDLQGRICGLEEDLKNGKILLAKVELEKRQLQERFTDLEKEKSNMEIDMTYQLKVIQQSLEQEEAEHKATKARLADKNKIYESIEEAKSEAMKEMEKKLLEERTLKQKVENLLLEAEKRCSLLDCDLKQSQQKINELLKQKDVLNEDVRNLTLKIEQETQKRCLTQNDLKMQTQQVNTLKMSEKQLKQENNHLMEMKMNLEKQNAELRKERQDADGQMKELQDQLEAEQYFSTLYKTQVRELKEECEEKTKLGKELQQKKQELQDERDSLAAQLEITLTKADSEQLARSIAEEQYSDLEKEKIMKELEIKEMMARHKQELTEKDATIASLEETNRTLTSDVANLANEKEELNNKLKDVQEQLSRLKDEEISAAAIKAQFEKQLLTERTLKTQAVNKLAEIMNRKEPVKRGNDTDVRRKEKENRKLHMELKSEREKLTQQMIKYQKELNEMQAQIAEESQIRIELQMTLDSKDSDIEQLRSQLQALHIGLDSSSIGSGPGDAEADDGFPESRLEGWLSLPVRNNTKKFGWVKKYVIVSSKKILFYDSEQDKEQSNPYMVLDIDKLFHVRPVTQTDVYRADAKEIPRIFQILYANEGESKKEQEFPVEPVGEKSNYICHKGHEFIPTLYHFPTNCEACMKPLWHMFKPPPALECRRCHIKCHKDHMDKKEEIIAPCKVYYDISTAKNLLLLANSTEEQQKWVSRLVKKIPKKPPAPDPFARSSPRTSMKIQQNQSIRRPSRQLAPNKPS

| IC50 (ROCK2) | inhibition at 50 µM (ROCK1) | IC50 (ROCK1) | IC50 (ROCK2; hydrochloride) | IC50 (ROCK1; hydrochloride) | ROCK1 % inhibition @ 50 μM (ROCK1; 50 μM compound) | Compound |
| --- | --- | --- | --- | --- | --- | --- |
| 0.4 ± 0.1 µM | 80 ± 3% | 0.8 ± 0.5 µM | – | – | – | Nc1nccc(-n2ccc3c(OCc4ccccc4)cccc32)n1 |
| 1.2 ± 0.32 µM | 102.2 ± 0.2% | 3.43 ± 0.44 µM | – | – | – | C[C@H](NC(=O)c1cccc2c1ccn2-c1ccnc(N)n1)c1ccccc1 |
| 5.3 ± 1.2 µM | 89 ± 1% | 4.9 ± 0.8 µM | – | – | – | COc1ccc2c(c1)c(CCNC(C)=O)cn2-c1ccnc(N)n1 |
| 17 ± 1.7 µM | 63 ± 5% | 53.6 ± 4.1 µM | – | – | – | Nc1nccc(-n2ccc3c(OCCc4ccccc4)cccc32)n1 |
| 25.5 ± 5.8 µM | 60 ± 3% | 38.5 ± 3.4 µM | – | – | – | Nc1nccc(Nc2ccc(S(N)(=O)=O)cc2)n1 [drawing 83] |
| 1.8 ± 0.3 µM | 51 ± 1% | 2.2 ± 0.3 µM | – | – | – | Nc1nccc(N2CCc3ccc([N+](=O)[O-])cc32)n1 |
| 7.3 ± 2 µM | 90 ± 1% | 6.7 ± 1.3 µM | – | – | – | CS(=O)(=O)c1cccc(Nc2ccnc(N)n2)c1 |
| 0.26 ± 0.09 µM | 72 ± 10% | 2.7 ± 1.78 µM | – | – | – | Nc1nccc(-n2ccc3c(C(=O)NCc4cccc(F)c4)cccc32)n1 |
| > 50 µM | 47 ± 6% | 55.3 ± 13.4 µM | – | – | – | Nc1nccc(Nc2ccccc2)n1 |
| 1.2 ± 0.2 µM | 73 ± 3% | 1.5 ± 0.2 µM | – | – | – | Nc1nccc(N2CCc3cc(Cl)ccc32)n1 |
| 39.6 ± 6.2 µM | 63 ± 5% | 37 ± 8.8 µM | – | – | – | COC(=O)c1cccc(Nc2ccnc(N)n2)c1 |
| 11.5 ± 1.2 µM | 82 ± 2% | 13.3 ± 1.7 µM | – | – | – | NC(=O)c1ccc(Nc2ccnc(N)n2)cc1 |
| – | – | – | 25 µM | 38 µM | – | Nc1nccc(Nc2ccc(S(N)(=O)=O)cc2)n1 [1aa, 4-(2-Aminopyrimidin-4-ylamino)benzenesulfonamide hydrochloride] |
| 1.9 ± 0.4 µM | 97 ± 1% | 1.7 ± 0.2 µM | – | – | – | CC1Cc2ccccc2N1c1ccnc(N)n1 (centres unmarked) |
| 0.2 ± 0.1 µM | 92 ± 1% | 1 ± 0.5 µM | – | – | – | Nc1nccc(-n2ccc3c(C(=O)NCc4ccccc4)cccc32)n1 |
| 0.04 ± 0.03 µM | 93 ± 7% | 0.15 ± 0.02 µM | – | – | – | COc1cccc(CNC(=O)c2cccc3c2ccn3-c2ccnc(N)n2)c1 |
| 1.34 ± 0.09 µM | 89 ± 4% | 3.7 ± 0.4 µM | – | – | – | Nc1nccc(N2CCc3ccc(F)cc32)n1 |
| 0.92 ± 0.48 µM | 88.7 ± 5.96% | 5.67 ± 0.32 µM | – | – | – | Nc1nccc(-n2ccc3c(C(=O)NCc4ccccc4F)cccc32)n1 |
| 2.6 ± 0.1 µM | 93 ± 2% | 4.8 ± 0.5 µM | – | – | – | CC1CN(c2ccnc(N)n2)c2ccccc21 (centres unmarked) |
| 0.2 ± 0.01 µM | 97 ± 4% | 0.4 ± 0.1 µM | – | – | – | CC1Cc2cc(F)ccc2N1c1ccnc(N)n1 (centres unmarked) |
| 0.7 ± 0.3 µM | 96 ± 1% | 2.8 ± 0.3 µM | – | – | – | Nc1nccc(-n2ccc3cc(C(=O)NCCc4ccccc4)ccc32)n1 |
| 0.25 ± 0.02 µM | 92.8 ± 3.64% | 1.62 ± 0.86 µM | – | – | – | COc1cccc(CNC(=O)c2cccc3c2CCN3c2ccnc(N)n2)c1 |
| 19 ± 5.9 µM | 62 ± 6% | 29.1 ± 8.2 µM | – | – | – | Nc1nccc(-n2ccc3c(OCc4ccccc4Cl)cccc32)n1 |
| 7.1 ± 2.1 µM | 82 ± 5% | 8.3 ± 0.9 µM | – | – | – | Cc1ccc2c(ccn2-c2ccnc(N)n2)c1 |
| 1.1 ± 0.49 µM | 70 ± 3% | 10.5 ± 1 µM | – | – | – | Nc1nccc(-n2ccc3c(C(=O)NCc4ccc(F)cc4)cccc32)n1 |

| IC50 (ROCK2) | inhibition at 50 µM (ROCK1) | IC50 (ROCK1) | IC50 (ROCK2; hydrochloride) | IC50 (ROCK1; hydrochloride) | ROCK1 % inhibition @ 50 μM (ROCK1; 50 μM compound) | Compound |
| --- | --- | --- | --- | --- | --- | --- |
| 0.25 ± 0.07 µM | 90 ± 1% | 0.48 ± 0.099 µM | – | – | – | Nc1nccc(N2CCc3c(OCc4ccccc4)cccc32)n1 |
| 33.3 ± 2.8 µM | 54 ± 4% | 38.9 ± 0.9 µM | – | – | – | NC(=O)c1cccc(Nc2ccnc(N)n2)c1 |
| 1.2 ± 0.1 µM | 83 ± 5% | 1.7 ± 0.3 µM | – | – | – | Nc1nccc(N2CCc3cc(Br)ccc32)n1 |
| 10.3 ± 0.9 µM | 73 ± 4% | 25.8 ± 2.6 µM | – | – | – | Nc1nccc(N2CCc3cc(S(N)(=O)=O)ccc32)n1 |
| 23.4 ± 5.5 µM | 64 ± 7% | 30 ± 3.2 µM | – | – | – | Nc1nccc(Nc2ccc(OC(F)F)cc2)n1 |
| 1.7 ± 0.3 µM | 89 ± 1% | 2.1 ± 0.3 µM | – | – | – | Nc1nccc(-n2ccc3cc(Br)ccc32)n1 |
| 1 ± 0.3 µM | 88 ± 0.3% | 1.2 ± 0.2 µM | – | – | – | Nc1nccc(-n2ccc3ccc(Cl)cc32)n1 |
| 0.21 ± 0.15 µM | 85 ± 6% | 1.7 ± 0.5 µM | – | – | – | CC(NC(=O)c1cccc2c1ccn2-c1ccnc(N)n1)c1ccccc1 (centres unmarked) [drawing 177] |
| 0.06 ± 0.02 µM | – | 0.12 ± 0.02 µM | – | – | 105 ± 1% | CC(NC(=O)c1cccc2c1ccn2-c1ccnc(N)n1)c1ccccc1 (centres unmarked) [drawing 178] |
| 13.9 ± 1.7 µM | 77 ± 3% | 20.5 ± 8 µM | – | – | – | COC(=O)c1ccc(Nc2ccnc(N)n2)cc1 |
| 6.1 ± 1.1 µM | 90 ± 2% | 6.1 ± 0.6 µM | – | – | – | Nc1nccc(Nc2cccc(S(N)(=O)=O)c2)n1 |
| 4 ± 0.3 µM | 88 ± 4% | 4.8 ± 0.3 µM | – | – | – | Nc1nccc(-n2ccc3ccccc32)n1 |
| 0.7 ± 0.1 µM | 89 ± 7% | 1.2 ± 0.2 µM | – | – | – | Nc1nccc(N2CCc3cc(F)ccc32)n1 |
| 1.7 ± 0.1 µM | 86 ± 5% | 4.9 ± 0.5 µM | – | – | – | Nc1nccc(-n2ccc3ccc(F)cc32)n1 |
| 0.25 ± 0.13 µM | 96 ± 3% | 0.4 ± 0.1 µM | – | – | – | COc1ccc2c(ccn2-c2ccnc(N)n2)c1 |
| 4.9 ± 1 µM | 88 ± 2% | 4.9 ± 0.5 µM | – | – | – | COc1ccc2ccn(-c3ccnc(N)n3)c2c1 |
| 37.4 ± 4 µM | 50 ± 1% | 38.7 ± 1.6 µM | – | – | – | Nc1nccc(-n2cnc3ccccc32)n1 |
| 8.4 ± 2 µM | 60 ± 2% | 54.1 ± 1.1 µM | – | – | – | Nc1nccc(-n2ccc3cc(NC(=O)CCc4ccccc4)ccc32)n1 |
| 1.8 ± 0.68 µM | 69 ± 3% | 6 ± 2 µM | – | – | – | COc1ccccc1CNC(=O)c1cccc2c1ccn2-c1ccnc(N)n1 |
| 32.7 ± 8.1 µM | 44 ± 9% | 34.6 ± 8.2 µM | – | – | – | Nc1nccc(-n2ccc3c(OCc4cccc(Cl)c4)cccc32)n1 |
| 0.3 ± 0.1 µM | 96 ± 1% | 2.4 ± 1.6 µM | – | – | – | Nc1nccc(-n2ccc3cc(C(=O)NCc4ccccc4)ccc32)n1 |
| 37.9 ± 2 µM | 49 ± 4% | 41 ± 2.3 µM | – | – | – | CS(=O)(=O)c1ccc2c(c1)CCN2c1ccnc(N)n1 |
| 7.82 ± 2.3 µM | 91 ± 2% | 4.86 ± 0.6 µM | – | – | – | Nc1nccc(Nc2cccc([N+](=O)[O-])c2)n1 |
| 35.3 ± 5.1 µM | 69 ± 1% | 19.8 ± 4.3 µM | – | – | – | Nc1nccc(N2CCCc3ccccc32)n1 |
| 17.1 ± 2.8 µM | 76 ± 2% | 21 ± 8.8 µM | – | – | – | CSc1ccc(Nc2ccnc(N)n2)cc1 |
